Reference: patent US20220370418A1, “PHARMACEUTICAL COMBINATIONS COMPRISING A FURAZANOBENZIMIDAZOLES AND A CD40 AGONIST FOR USE IN THE TREATMENT OF NEOPLASTIC DISEASES” (Basilea Pharmaceutica International AG, priority 2019, published 2022)

Key:
[1] = twenty-nine patients, doses from 0.01 to 0.3 mg/kg; cited from earlier work
SB28 glioma [2] = assay: Survival in syngeneic orthotopic SB28 glioma mouse model; type: in vivo, C57BL/6 mice
GL261 glioma = assay: Survival in syngeneic orthotopic highly invasive GL261 glioma mouse model; type: in vivo, C57BL/6 mice
[3] = cited from earlier work
SB28 glioma [4] = assay: Survival in syngeneic orthotopic SB28 glioma model in T- and B-cell deficient RAG1 knockout mice; type: in vivo, C57BL/6 RAG1 knockout mice
[5] = Log-rank (Mantel-Cox) analysis, n=8-10 mice per group

| Compound | maximum tolerated dose (MTD) [1] [mg/kg] | survival of SB28 glioma bearing mice (in words, FIG. 1) (SB28 glioma [2]; [5]) | median survival increase versus control (SB28 glioma [2]; SB28 intra-cranial, C57BL/6 mice, BAL101553 25 mg/kg orally daily day 5-9, 12-16, 19-23, 26-30, anti-CD40 antibody 100 μg per animal IP days 7, 12, 16) [%] | median survival increase, less than in the combination regimen (SB28 glioma [2]; single agent versus combination, SB28, C57BL/6 mice) [%] | median survival increase versus control (GL261 glioma; GL261 intra-cranial, C57BL/6 mice, same treatment schedule as Examples 1 and 2) [%] | survival of GL261 glioma bearing mice (in words, FIG. 3) (GL261 glioma; Log-rank (Mantel-Cox) analysis, n=10 mice per group) | median survival increase, less than measured in the combination regimen (GL261 glioma; single agent versus combination, GL261, C57BL/6 mice) [%] | water solubility (in words) [3] | survival of SB28 glioma bearing immunodeficient (RAG1 KO) mice (in words, FIG. 2) (SB28 glioma [4]; [5]) | median survival increase versus control (SB28 glioma [4]; SB28 intra-cranial, RAG1 KO mice, same treatment schedule as Example 1) [%] | median survival increase, less than measured in the combination regimen (SB28 glioma [4]; single agent versus combination, SB28, RAG1 KO mice) [%] |
| --- | --- | --- | --- | --- | --- | --- | --- | --- | --- | --- | --- |
| CP-870,893: fully human IgG2 agonistic CD40 antibody developed by Pfizer | 0.2 | – | – | – | – | – | – | – | – | – | – |
| N#CCCNc1nonc1-c1nc2ccccc2n1CC(=O)c1ccc(NC(=O)[C@@H](N)CCCCN)cc1 [BAL101553, (S)-2,6-Diamino-hexanoic acid [4-(2-{2-[4-(2-cyano-ethylamino)-furazan-3-yl]-benzoimidazol-1-yl}-acetyl)-phenyl]-amide] | – | statistically significant but smaller survival benefit than the combined regimen | 55 | 26 | 18 | do not show any significant prolongation of survival | 25 | highly water-soluble | statistically significant, but smaller survival benefit than the combined regimen | 33 | 23 |
